Entries after “also recorded” stand apart in the source; their conditions may differ. Read-outs that look alike come from different tables or passages of the source.
Tests used:
[1] = tested on: HT1080 fibrosarcoma cells; assay: HT1080 cell migration assay; type: cell-based, human; settings: for inhibition at 100 µM: Homo sapiens, HT-1080, 24 h, read-out: inhibition of HT1080 cell migration, 100 µM, 24 h
[2] = tested on: Pseudomonas aeruginosa exotoxin A cytotoxicity in CHO DG44 cells; assay: Pseudomonas exotoxin A assay; type: cell-based, Chinese hamster
[3] = tested on: anthrax toxin (PA + LF) cytotoxicity in RAW264.7 cells; type: cell-based, murine
PC1/3 = PC1/3 inhibition; type: biochemical; settings: for inhibition of PC1/3 (in words): 10 µM; for inhibition of PC1/3: 100 µM
[4] = tested on: Golgi furin in CHO-GRAPfurin cells; assay: SEAP activity assay in CHO-GRAPfurin cells; type: cell-based, Chinese hamster; settings: 100 µM, 20–24 h
furin = settings: Ki values taken from the literature; cited from earlier work
PC5 = settings: cited from earlier work
PACE4 = settings: cited from earlier work
Soluble human furin = Soluble human furin (Homo sapiens, UniProt P09958); assay: Furin enzyme assay, IC50 and Ki determination
skin tumor = settings: cited from earlier work
[5] = tested on: human fibrosarcoma HT1080 cells; settings: by inhibiting proMT1-MMP processing; cited from earlier work
[6] = concentration not stated in the sentence (10 and 100 µM tested)

Chain of Soluble human furin (P09958 108-715 limits assumed): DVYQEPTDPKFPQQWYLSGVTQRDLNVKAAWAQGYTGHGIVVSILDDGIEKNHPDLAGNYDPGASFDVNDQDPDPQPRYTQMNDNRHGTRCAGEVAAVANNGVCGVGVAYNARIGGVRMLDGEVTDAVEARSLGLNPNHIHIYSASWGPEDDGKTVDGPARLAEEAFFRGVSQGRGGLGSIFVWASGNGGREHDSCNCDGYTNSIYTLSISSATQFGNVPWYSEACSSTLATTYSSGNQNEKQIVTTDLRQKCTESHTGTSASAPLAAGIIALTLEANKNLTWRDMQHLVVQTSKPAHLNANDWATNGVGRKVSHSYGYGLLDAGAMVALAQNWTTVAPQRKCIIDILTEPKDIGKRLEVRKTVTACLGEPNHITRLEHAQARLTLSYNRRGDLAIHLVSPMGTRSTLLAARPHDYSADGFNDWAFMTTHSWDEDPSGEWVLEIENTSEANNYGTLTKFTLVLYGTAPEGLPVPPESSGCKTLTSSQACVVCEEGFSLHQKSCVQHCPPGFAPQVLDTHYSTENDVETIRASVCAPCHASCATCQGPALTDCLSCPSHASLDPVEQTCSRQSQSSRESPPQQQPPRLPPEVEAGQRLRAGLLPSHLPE

Molecule	inhibition of cell migration (in words) ([1]; 100 µM, 24 h)	inhibition at 100 µM [1]	protection against Pseudomonas exotoxin A (in words) [2, 6]	protection against anthrax toxicity (in words) ([3]; 100 µM inhibitor, 2 h)	inhibition of intracellular (TGN) furin, SEAP release (in words) [4]	protection against anthrax toxicity (in words) ([3]; 10 µM inhibitor, 2 h)	protection against anthrax toxicity (in words) [3, 6]	also measured
N=C(N)Nc1ccc(O[C@@H]2CCC[C@H](Oc3ccc(NC(=N)N)cc3)C2)cc1 [2b, cis-1,3-bis(4-guanidinophenoxy)cyclohexane]	inhibited migration	~40%						
N=C(N)Nc1ccc(OCCCOc2ccc(NC(=N)N)cc2NC(=N)N)c(NC(=N)N)c1 [2d, 1,3-bis(2,4-diguanidinophenoxy)propane]			good protection	excellent protection				inhibition of HT1080 cell migration ([1]; 100 µM, 24 h): around 40%; inhibition of PC1/3 (in words) (PC1/3): no inhibition detected; inhibition of PC1/3 (PC1/3): 51%
N=C(N)Nc1ccc(O[C@@H]2CCC[C@H](Oc3ccc(NC(=N)N)cc3NC(=N)N)C2)c(NC(=N)N)c1 [2e, cis-1,3-bis(2,4-diguanidinophenoxy)cyclohexane]		20 to 25%	good protection	excellent protection				inhibition of PC1/3 (in words) (PC1/3): no inhibition detected; inhibition of PC1/3 (PC1/3): 38%
N=C(N)Nc1ccc(OC2CC(Oc3ccc(NC(=N)N)cc3NC(=N)N)C(NC(=N)N)CC2NC(=N)N)cc1 (centres unmarked) [compound 1b, 1,1'-(4-((2,4-diguanidino-5-(4-guanidinophenoxy)cyclohexyl)oxy)-1,3-phenylene)diguanidine]	retard tumor cell migration; also recorded: good inhibitors of cell migration; also recorded: inhibited cell migration	35%	protect cells against Bacillus anthracis (anthrax) and Pseudomonas aeruginosa intoxication; also recorded: capable of blocking both Pseudomonas and anthrax toxemia at low doses		block release of a Golgi reporter; also recorded: able to inhibit intracellular furin; also recorded: able to inhibit TGN furin	complete inhibition of anthrax toxicity	protect cells against Bacillus anthracis (anthrax); also recorded: capable of blocking both Pseudomonas and anthrax toxemia at low doses	protection against Pseudomonas exotoxin A (in words) ([2]; 10 µM inhibitor, 20–24 h): completely prevent Pseudomonas toxin cytotoxicity; potency against furin in vitro (in words) (furin): nanomolar potency
N=C(N)Nc1ccc(OC2CC(Oc3ccc(NC(=N)N)cc3)C(NC(=N)N)CC2NC(=N)N)cc1 (centres unmarked) [compound 1g, 1,1'-(4,6-bis(4-guanidinophenoxy)cyclohexane-1,3-diyl)diguanidine]	did not inhibit cell migration; also recorded: unable to inhibit		only moderate protection; also recorded: modest effect		unable to inhibit	complete inhibition of anthrax toxicity	efficiently protected cells against anthrax; also recorded: potently prevented anthrax toxicity	potency against furin in vitro (in words) (furin): nanomolar potency; cross-inhibition of PC5 (in words) (PC5): substantial cross-inhibition; cross-inhibition of PACE4 (in words) (PACE4): substantial cross-inhibition
N=C(N)Nc1ccc(OCCCOc2ccc(NC(=N)N)cc2)cc1 [compound 2a, 1,3-bis(4-guanidinophenoxy)propane]	inhibited migration	~40%		unable to block anthrax toxicity				
N=C(N)Nc1ccc(Oc2cccc(Oc3ccc(NC(=N)N)cc3)c2)cc1 [compound 2c, 1,3-bis(4-guanidinophenoxy)benzene]	the most potent inhibitor; also recorded: inhibited migration; also recorded: completely inhibited cell mobility							
N=C(N)Nc1ccc(Oc2cccc(Oc3ccc(NC(=N)N)cc3NC(=N)N)c2)c(NC(=N)N)c1 [compound 2f, 1,3-bis(2,4-diguanidinophenoxy)benzene]		20 to 25%	good protection	excellent protection	only slightly inhibited	almost complete protection; also recorded: complete inhibition of anthrax toxicity	highly efficient protection	inhibition of furin in vitro (in words) (Soluble human furin): micromolar potency
dec-RVKR-CMK								skin tumor progression (in words) (skin tumor): decreases skin tumor progression
naphthofluorescein disodium salt [B3]								cell mobility and invasiveness of HT1080 cells (in words) [5]: prevented cell mobility and invasiveness

Source: PMC4468025 (Biochemical pharmacology, 2015)
